Experimental data published in patent US20180339053A1, “USE OF 1,2-DICARBOXYLIC ACID MONOAMIDE POLYMER AS SYNERGIST FOR CHEMOTHERAPY” (Nankai University, priority 2017, published 2018).
Where “and” joins values, the source holds several entries; their conditions need not be identical. Equal values may be shown once. Read-outs that look alike come from different tables or passages of the source.

Columns and labels:
HepG2 cells = assay: Cytotoxicity experiment (MTS) of polymer and anti-cancer drug on HepG2 cells; assay type: cell-based, human; details: for viability at 5 µg/mL / viability at 4 µg/mL: Homo sapiens; for viability at 5 µg/mL: read-out: Cell Viability (%) Taxol
Description: (§1) A suspension of HepG2 cells diluted in 100 μL of a complete medium (a RPMI-1640 medium containing 10% fetal bovine serum and 1% penneillin/streptomycin) was added into a 96-well plate at a concentration of 5×10^3 cells per well, cultivated at 37 degrees Celsius for 24 hours. […] The solution was then aspirated, added with 100 μL of fresh complete medium and incubated continually for 24 hours. The culture medium was aspirated, added with 80 μL PBS solution and 20 μL cell proliferation reagent MTS, incubated at 37 degrees Celsius for 1 hour, and then measured with a microplate reader at 490 nm for absorbance.
(§2) This embodiment is an in vitro cell experiment of the effect of a polyallylamine-2,3-dimethyl maleic anhydride modifier with a molecular weight of 15,000 (PAA15K-DMA) for promoting the toxicity of different chemotherapeutic drugs on non-resistant HepG2 cells. According to the method described in Embodiment 4, the concentration of PAA15K-DMA was 25 μg/mL, and the obtained data was shown in Table 1.
as §2, with “polyallylamine-cyclohexene-1,2-dicarboxylic acid” for “polyallylamine-2,3-dimethyl maleic anhydride”, “200,000 (PAA200K-TPA)” for “15,000 (PAA15K-DMA)”, “PAA200K-TPA” for “PAA15K-DMA”, “Table 1 and FIG.” for “Table”
as §1, with “804” for “80 μL”
as §2, with “linear polyethylenimine-cyclohexene-1,2-dicarboxylic acid” for “polyallylamine-2,3-dimethyl maleic anhydride”, “10,000 (LPEI10K-TPA)” for “15,000 (PAA15K-DMA)”, “10,” for “4,”, “LPEI10K-TPA” for “PAA15K-DMA”, “15” for “25”
as §2, with “branched polyethyleneimine-1-methyl” for “polyallylamine-2,3-dimethyl”, “25,000 (BPEI25K-CA)” for “15,000 (PAA15K-DMA)”, “10,” for “4,”, “BPEI25K-CA” for “PAA15K-DMA”, “15” for “25”
(§3) This embodiment is an in vitro cell experiment of the effect of a 3rd-generation dendritic polypropyleneimine-3-carboxy-2-pentenedioic acid modifier (G3 PPI-AA) for promoting the toxicity of different chemotherapeutic drugs on non-resistant HepG2 cells. According to the method described in Embodiment 10, the concentration of G3 PPI-AA was 20 μg/mL, and the obtained data was shown in Table 1.
as §3, with “polypropyleneimine-2,3-dimethyl maleic anhydride” for “polypropyleneimine-3-carboxy-2-pentenedioic acid”, “PPI-DMA)” for “PPI-AA)”, “PPI-DMA” for “PPI-AA”, “1 and FIG. 3.” for “1.”
This embodiment is an in vitro cell experiment of the effect of a branched polylysine-cyclohexene-1,2-dicarboxylic acid modifier having a molecular weight of 2,000 (BPLys2K-TPA) for promoting the toxicity of different chemotherapeutic drugs on non-resistant HepG2 cells. […]

HepG2/ADR cells = assay: Cytotoxicity experiment (MTS) of polymer and anti-cancer drug on HepG2/ADR cells; assay type: cell-based; details: Homo sapiens, read-out: Cell Viability (%) Taxol
Description: as §1, with “HepG2/ADR” for “HepG2”, “2 hours,” for “1 hour,”
as §1, with “suspension of HepG2/ADR cells diluted” for “suspension of HepG2 cells diluted”, “in 100 IA of a” for “in 100 μL of a”, “Celsius for 2 hours, and then” for “Celsius for 1 hour, and then”, “for absorbance. […]” for “for absorbance.”

[1] = HepG2, pH = 6.5, 5 μg/mL taxol alone (control)
[2] = HepG2, pH = 7.4, 5 μg/mL taxol alone (control)

For `CC(=O)O[C@H]1C(=O)[C@@]2(C)[C@H]([C@H](OC(=O)c3ccccc3)[C@]3(O)C[C@H](OC(=O)[C@H](O)[C@@H](NC(=O)c4ccccc4)c4ccccc4)C(C)=C1C3(C)C)[C@]1(OC(C)=O)CO[C@@H]1C[C@@H]2O` [Taxol, taxol], the viability at 5 µg/mL (HepG2 cells; [1]) was 80.3%, the viability at 5 µg/mL (HepG2 cells; [2]) was 83.1% and the “Cell Viability (%) Taxol” value (HepG2 cells; pH = 6.5, 5 μg/mL taxol alone (control)) was 78.66% and 76.08%. For the same molecule, the “Cell Viability (%) Taxol” value (HepG2 cells; pH = 7.4, 5 μg/mL taxol alone (control)) was 82.38% and 80.61%, the viability at 5 µg/mL (HepG2/ADR cells; [1]) was 84.5% and the viability at 5 µg/mL (HepG2/ADR cells; [2]) was 89.2%.

For `COc1cccc2c1C(=O)c1c(O)c3c(c(O)c1C2=O)C[C@@](O)(C(=O)CO)C[C@@H]3O[C@H]1C[C@H](N)[C@H](O)[C@H](C)O1` [Doxorubicin, doxorubicin], the viability at 4 µg/mL (HepG2 cells; HepG2, read-out: Cell Viability (%) Doxorubicin, pH = 6.5, 4 μg/mL doxorubicin alone (control)) was 77%, the viability at 4 µg/mL (HepG2 cells; HepG2, read-out: Cell Viability (%) Doxorubicin, pH = 7.4, 4 μg/mL doxorubicin alone (control)) was 72.9% and the “Cell Viability (%) Doxorubicin” value (HepG2 cells; pH = 6.5, 4 μg/mL doxorubicin alone (control)) was 78.59% and 77.13%. The “Cell Viability (%) Doxorubicin” value (HepG2 cells; pH = 7.4, 4 μg/mL doxorubicin alone (control)) was 70.75% and 73.82%.
